According to US8324225B2, “Pyrrolopyrimidine compounds and their uses” (Novartis AG, priority 2006, dated 2012):

Molecular target: hCDK1/B (Homo sapiens, UniProt P06493)
Assay: hCDK1/B
Assay type: biochemical
Settings: Table E; read-out: hCDK1/B/IC50 [umol l − 1]

hCDK1/B, sequence (P06493 whole entry): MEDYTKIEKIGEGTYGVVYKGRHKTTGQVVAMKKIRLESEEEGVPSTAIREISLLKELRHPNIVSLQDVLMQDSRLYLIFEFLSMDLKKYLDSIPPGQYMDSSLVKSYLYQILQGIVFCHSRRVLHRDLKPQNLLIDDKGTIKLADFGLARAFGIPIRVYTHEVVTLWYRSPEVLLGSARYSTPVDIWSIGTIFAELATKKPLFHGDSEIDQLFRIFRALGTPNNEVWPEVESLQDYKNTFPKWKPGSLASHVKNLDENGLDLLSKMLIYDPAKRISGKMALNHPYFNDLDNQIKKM
hCDK1/B, sequence (P14635 whole entry partner): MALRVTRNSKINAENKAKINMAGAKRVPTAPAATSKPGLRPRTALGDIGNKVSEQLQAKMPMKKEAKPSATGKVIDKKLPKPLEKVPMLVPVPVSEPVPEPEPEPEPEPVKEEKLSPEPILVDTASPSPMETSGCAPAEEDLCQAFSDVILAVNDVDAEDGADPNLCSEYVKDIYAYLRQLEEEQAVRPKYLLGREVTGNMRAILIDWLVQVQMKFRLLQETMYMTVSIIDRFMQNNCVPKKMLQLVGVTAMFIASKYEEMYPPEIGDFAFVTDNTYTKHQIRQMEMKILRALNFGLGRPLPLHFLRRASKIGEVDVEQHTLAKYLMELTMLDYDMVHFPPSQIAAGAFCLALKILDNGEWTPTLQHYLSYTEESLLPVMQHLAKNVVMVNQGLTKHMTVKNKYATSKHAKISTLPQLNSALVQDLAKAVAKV

IC50 [µM]	Compound
> 15	Cc1cn(C2CCCC2)c2nc(Nc3ccc4[nH]ccc4c3)ncc12 [Example 282]

Molecular target: CDK4/Cyclin-D1 kinase complex (Homo sapiens, UniProt P11802)
Assay: CDK4 ELISA based assay, Rb phosphorylation at Serine780
Assay type: biochemical
Settings: Table C
Text: The compounds that inhibit the CDK4 kinase activity would inhibit the signal output of the assay.

CDK4/Cyclin-D1 kinase complex, sequence (P11802 whole entry): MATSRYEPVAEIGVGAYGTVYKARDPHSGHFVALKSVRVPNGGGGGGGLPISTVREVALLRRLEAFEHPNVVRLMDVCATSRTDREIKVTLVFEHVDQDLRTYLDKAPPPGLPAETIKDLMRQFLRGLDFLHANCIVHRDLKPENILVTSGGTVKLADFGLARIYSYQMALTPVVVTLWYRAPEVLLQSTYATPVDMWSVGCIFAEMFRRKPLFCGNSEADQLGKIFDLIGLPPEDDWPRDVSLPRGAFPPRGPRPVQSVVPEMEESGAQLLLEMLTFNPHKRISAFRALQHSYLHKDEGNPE
CDK4/Cyclin-D1 kinase complex, sequence (P24385 whole entry partner): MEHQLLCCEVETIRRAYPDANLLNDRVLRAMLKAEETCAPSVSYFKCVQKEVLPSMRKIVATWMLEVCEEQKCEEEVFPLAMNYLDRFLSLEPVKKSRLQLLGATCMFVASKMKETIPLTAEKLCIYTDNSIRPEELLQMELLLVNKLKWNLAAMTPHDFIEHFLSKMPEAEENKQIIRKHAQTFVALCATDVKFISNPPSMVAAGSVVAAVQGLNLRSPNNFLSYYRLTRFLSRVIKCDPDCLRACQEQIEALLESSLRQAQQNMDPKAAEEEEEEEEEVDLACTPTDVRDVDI

IC50 [µM]	Compound
< 10	CC(=O)N1CCN(c2ccc(Nc3ncc4c(C)cn(C5CCCC5)c4n3)cc2)CC1
< 10	Cc1cn(C2CCCC2)c2nc(Nc3ccc(N4CCNCC4)cn3)ncc12
< 10	Cc1cn(C2CCCC2)c2nc(Nc3ccc(N4CCN(C)CC4)cc3)ncc12
> 10	CC(C)(C)OC(=O)N1CCN(c2ccc(Nc3ncc4ccn(C5CCCC5)c4n3)nc2)CC1
> 10	CC(=O)N1CCN(c2ccc(Nc3ncc4ccn(C5CCCC5)c4n3)nc2)CC1
< 10	CN1CCN(c2ccc(Nc3ncc4ccn(C5CCCC5)c4n3)cc2)CC1
> 10	CC(=O)N1CCN(c2ccc(Nc3ncc4ccn(C5CCCC5)c4n3)cc2)CC1
< 10	Cc1cn(C2CC2)c2nc(Nc3ccc(N4CCNCC4)cc3)ncc12
< 10	c1cc(N2CCNCC2)ccc1Nc1ncc2ccn(C3CCCC3)c2n1
< 10	Cc1cn(C2CCCCC2)c2nc(Nc3ccc(N4CCNCC4)cn3)ncc12
< 10	Cc1cn(C2CC2)c2nc(Nc3ccc(N4CCNCC4)cn3)ncc12

Compound	IC50 [µM]
c1cc(Nc2ncc3ccn(C4CCCC4)c3n2)ncc1N1CCNCC1	> 10

Molecular target: CDK4 (Homo sapiens, UniProt P11802)
Assay: CDK4 HTRF
Assay type: biochemical
Settings: Table E; read-out: CDK4 HTRF/IC50 [umol l − 1]

CDK4, sequence (P11802 whole entry): as the sequence (P11802 whole entry) above
CDK4, sequence (P24385 whole entry partner): as the sequence (P24385 whole entry partner) above

IC50 [µM]	Compound
< 10	CCC(C(=O)OC)n1ccc2cnc(Nc3ccc(N4CCN(C(C)=O)CC4)cc3)nc21 (centres unmarked) [Example 219]
< 10	CCC(C(=O)OC)n1ccc2cnc(Nc3ccc(N4CCNCC4)cc3)nc21 (centres unmarked) [Example 221]
< 10	CCC(C)n1ccc2cnc(Nc3ccc(N4CCN(C(C)=O)CC4)cc3)nc21 (centres unmarked) [Example 222]
< 10	CCOC(=O)C(C(C)C)n1ccc2cnc(Nc3ccc(N4CCN(C(C)=O)CC4)cc3)nc21 (centres unmarked) [Example 223]
< 10	CC(=O)N1CCN(c2ccc(Nc3ncc4ccn(C5CCCCC5=O)c4n3)cc2)CC1 (centres unmarked) [Example 226]
< 10	CCC(C(N)=O)n1ccc2cnc(Nc3ccc(N4CCN(C(C)=O)CC4)cc3)nc21 (centres unmarked) [Example 227]
< 10	CC(=O)N1CCN(c2ccc(Nc3ncc4ccn(C5CCOCC5)c4n3)cc2)CC1 [Example 228]
< 10	CC(=O)N1CCN(c2ccc(Nc3ncc4ccn(C(C)CN(C)C)c4n3)cc2)CC1 (centres unmarked) [Example 229]
< 10	CCC(C(N)=O)n1ccc2cnc(Nc3ccc(N4CCNCC4)cc3)nc21 (centres unmarked) [Example 234]
< 10	c1cc(N2CCNCC2)ccc1Nc1ncc2ccn(C3CCOCC3)c2n1 [Example 235]
< 10	CC(=O)N1CCN(c2ccc(Nc3ncc4ccn(C5CCC(C)CC5)c4n3)cc2)CC1 (centres unmarked) [Example 236]
< 10	CCC(=O)N1CCN(c2ccc(Nc3ncc4ccn(C(CC)CC)c4n3)cc2)CC1 [Example 237]
< 10	CC(=O)N1CCN(c2ccc(Nc3ncc4ccn(C5CCCC(C)C5)c4n3)cc2)CC1 (centres unmarked) [Example 241]
< 10	CN(C)CC1CCC(n2ccc3cnc(Nc4ccc(N5CCNCC5)cc4)nc32)C1 (centres unmarked) [Example 249]
< 10	CN1CCN(c2ccc(Nc3ncc4ccn(C5CCCC5)c4n3)nc2)CC1 [Example 255]
< 10	Cc1cn(C2CCCC2)c2nc(Nc3ccc(N4CCCCC4)cc3)ncc12 [Example 278]
< 10	Cc1cn(C2CCCC2)c2nc(Nc3ccc4[nH]ncc4c3)ncc12 [Example 281]
> 10	Cc1cn(C2CCCC2)c2nc(Nc3ccc4[nH]ccc4c3)ncc12 [Example 282]
< 10	Cc1cn(C2CCCC2)c2nc(Nc3ccc(N4CCNCC4)nc3)ncc12 [Example 283]

IC50 [µM]	Compound
< 10	Cc1cn(C2CCCC2)c2nc(Nc3ccc(N4CCNCC4)c(F)c3)ncc12 [Example 285]
< 10	Cc1cn(C2CCCC2)c2nc(Nc3ccc(N4CCN(S(C)(=O)=O)CC4)cc3)ncc12 [Example 286]
< 10	Cc1cn(C2CCCC2)c2nc(Nc3ccc(S(N)(=O)=O)cc3)ncc12 [Example 288]
< 10	Cc1cn(C2CCCC2)c2nc(Nc3ccc(C(=O)N4CCOCC4)cc3)ncc12 [Example 292]
< 10	Cc1cn(C2CCCC2)c2nc(Nc3ccncc3)ncc12 [Example 298]
< 10	Cc1cn(C2CCCC2)c2nc(Nc3cccnc3)ncc12 [Example 300]
< 10	Cc1cn(C2CCCC2)c2nc(Nc3ccc(N4CCOCC4)cn3)ncc12 [Example 302]
< 10	Cc1cn(C2CCCC2)c2nc(Nc3ccc(N(C)C)cc3)ncc12 [Example 311]
< 10	Cc1cn(C2CCCC2)c2nc(Nc3ccc(-n4ccnc4)cc3)ncc12 [Example 312]
< 10	Cc1cn(-c2ccccn2)c2nc(Nc3ccc(N4CCNCC4)cn3)ncc12 [Example 320, (5-Methyl-7-pyridin-2-yl-7H-pyrrolo[2,3-d]pyrimidin-2-yl)-(5-piperazin-1-yl-pyridin-2-yl)-amine]
< 10	Cc1cn(-c2nccs2)c2nc(Nc3ccc(N4CCNCC4)cn3)ncc12 [Example 321]
< 10	Cc1cn(-c2cccnc2)c2nc(Nc3ccc(N4CCNCC4)cc3)ncc12 [Example 322]
< 10	CCCCNC(=O)c1cc2cnc(Nc3ccc(N4CCNCC4)cc3)nc2n1C(CC)CC [Example 336]
< 10	CCC(CC)n1c(C(=O)N2CCCC2)cc2cnc(Nc3ccc(N4CCNCC4)cc3)nc21 [Example 337]
< 10	CCC(CC)n1c(C(=O)N2CCOCC2)cc2cnc(Nc3ccc(N4CCNCC4)cc3)nc21 [Example 343]
< 10	CCC(CC)n1c(C(=O)NC2CCCC2)cc2cnc(Nc3ccc(N4CCNCC4)cc3)nc21 [Example 344]
< 10	CCC(CC)n1c(C(=O)Nc2ccc(C(C)(C)C)cc2)cc2cnc(Nc3ccc(N4CCNCC4)cc3)nc21 [Example 349]
< 10	CCC(CC)n1c(C(=O)Nc2ccc(CN3CCN(C)CC3)cc2)cc2cnc(Nc3ccc(N4CCNCC4)cc3)nc21 [Example 354]
< 10	CCC(CC)n1c(CNC(C)C)cc2cnc(Nc3ccc(N4CCN(C(C)=O)CC4)cc3)nc21 [Example 366]

IC50 [µM]	Compound
< 10	CCC(CC)n1c(CNC(C)C)cc2cnc(Nc3ccc(N4CCNCC4)cc3)nc21 [Example 367]
< 10	CCC(CC)n1c(CNc2cccnc2)cc2cnc(Nc3ccc(N4CCN(C(C)=O)CC4)cc3)nc21 [Example 369]
< 10	CCC(CC)n1c(CNC2CCCC2)cc2cnc(Nc3ccc(N4CCN(C(C)=O)CC4)cc3)nc21 [Example 370]
< 10	CCC(CC)n1c(CNc2ccon2)cc2cnc(Nc3ccc(N4CCN(C(C)=O)CC4)cc3)nc21 [Example 371]
< 10	CCC(CC)n1c(CNc2cc(C)[nH]n2)cc2cnc(Nc3ccc(N4CCN(C(C)=O)CC4)cc3)nc21 [Example 372]
< 10	CCC(CC)n1c(C(=O)OC)cc2cnc(Nc3ccc(N4CCN(C(C)=O)CC4)cc3)nc21 [Example 373, 2-[4-(4-Acetyl-piperazin-1-yl)-phenylamino]-7-(1-ethyl-propyl)-7H-pyrrolo[2,3-d]pyrimidine-6-carboxylic acid methyl ester]
< 10	CCC(CC)n1c(COC)cc2cnc(Nc3ccc(N4CCN(C(C)=O)CC4)cc3)nc21 [Example 379]
< 10	CCC(CC)n1c(COC)cc2cnc(Nc3ccc(C(=O)NC4CCCC4)cc3)nc21 [Example 380]
< 10	CC(=O)c1c(C)c2cnc(Nc3ccc(N4CCNCC4)cn3)nc2n1C1CCOCC1 [Example 388]
< 10	Cc1c(C(=O)N(C)C)n(C2CCCC2)c2nc(Nc3ccc(N4CCNCC4)cn3)ncc12 [Example 392]
< 10	Cc1cc(-c2c(C)c3cnc(Nc4ccc(N5CCNCC5)cn4)nc3n2C2CCCC2)on1 [Example 405]
< 10	Cc1cn(-c2ccccc2)c2nc(Nc3ccc(N4CCNCC4)cc3)ncc12 [Example 437]
< 10	CCc1cn(C2CCCC2)c2nc(Nc3ccc(N4CCNCC4)cc3)ncc12 [Example 438]
< 10	CC(C)c1cn(C2CCCC2)c2nc(Nc3ccc(N4CCNCC4)cn3)ncc12 [Example 440]
< 10	CCC(CC)n1c(CNCc2ccco2)cc2cnc(Nc3ccc(N4CCN(C(C)=O)CC4)cc3)nc21 [Example 449]
< 10	Cc1cn(C2CCCC2)c2nc(Nc3ccc(CN4CCN(C(=O)OC(C)(C)C)CC4)cc3)ncc12 [Example 462]
< 10	Cc1cn(C2CCCC2)c2nc(Nc3ccc(CO)cc3)ncc12 [Example 466]
< 10	CN(C)C(=O)c1cc2cnc(NCc3ccc(N4CCNCC4)cc3)nc2n1C1CCCC1 [Example 467]

Molecular target: CDK2/Cyclin-A kinase complex (Homo sapiens, UniProt P24941)
Assay: CDK2 IMAP fluorescence polarization assay
Assay type: biochemical
Settings: Table C; read-out: CDK2 IC50
Text: In order to test the CDK2 activity of the compounds of the invention, the CDK2 assay is a fluorescence polarization assay, where the enzyme is a purified active CDK2/Cyclin-A kinase complex and the substrate is a synthesized peptide derived from Histone H1. This assay utilizes the IMAP technology from Molecular Devices. The active CDK2/Cyclin-A complex phosphorylates the peptide substrate, which is conjugated with the TAMRA tag. The phosphorylated site is then recognized by a metal containing molecule that interacts with the TAMRA tag to induce a high fluorescence polarization. The compounds that inhibit the CDK2 kinase activity would inhibit the fluorescence output of the assay.

IC50 [µM]	Compound
< 10	CC(=O)N1CCN(c2ccc(Nc3ncc4c(C)cn(C5CCCC5)c4n3)cc2)CC1
< 10	Cc1cn(C2CCCC2)c2nc(Nc3ccc(N4CCNCC4)cc3)ncc12
> 10	Cc1cn(C2CCCC2)c2nc(Nc3ccc(N4CCNCC4)cn3)ncc12
> 10	Cc1cn(C2CCCC2)c2nc(Nc3ccc(N4CCN(C)CC4)cc3)ncc12

Same assay, conditions: Table E; read-out: CDK2cyA IMAP/IC50 [umol l − 1]

IC50 [µM]	Compound
> 15	Cc1cn(C2CCCC2)c2nc(Nc3ccc4[nH]ccc4c3)ncc12 [Example 282]
